These results are taken from article PMC7774954, “Interactomic affinity profiling by holdup assay: Acetylation and distal residues impact the PDZome-binding specificity of PTEN phosphatase” (PLoS ONE, 2020).

One assay has as its target T1, MAGI2 PDZ 2 (Homo sapiens, UniProt Q86UL8).
T1 construct: made in house; host or cells: E. coli
The experiment in a line: Holdup assay, MAGI2-2. It counts as binding. As to conditions: for BI: MAGI2-2. The procedure:
(§1) The holdup assay was performed on a Tecan freedom Evo200 robot with 384-well plates in singlicate for the three 11-mer PTEN variants and the 13-mer PTEN peptide as described in [31, 32]. Briefly, prior to interaction assay, 2.5 μL of streptavidin resin was saturated in each well with 20 μL of biotinylated PBM peptides (42 μM) and then washed twice with an excess of free biotin, while the reference resin was incubated only with biotin. Right before the holdup experiment, the PDZ library was spiked with an internal standard of lysozyme. Then, the biotin- or PBM-saturated resin was incubated, each in a distinct well of a 384-well plate, with complete cell lysates diluted so that the concentration of the tag-PDZ present in the crude extract is adjusted at 4 μM. After a sufficient time to reach complex equilibrium (15 min.), a fast and mild filtration step is performed and the tag-PDZ concentrations were measured by capillary electrophoresis instrument (LabChip GXII, PerkinElmer, Massachusets, USA). Standard markers were used to convert migration time into molecular weight on the LabChip software and inappropriate molecular weight markers were corrected or excluded.
(§2) For filtered data, the BI was extracted with the following equation (Eq 1) that estimates the depleted fraction after superimposition of the sample and reference electropherograms: BI=Iref−Ilig/Iref (1) where Iref and Ilig are the intensities of the tag-PDZ peaks measured, for each PDZ domain/PBM peptide interaction pair, in the biotin reference and the PBM electropherograms, respectively.
(§3) BIs were transformed into dissociation constants (KD) using the following formula: KD=([PDZtot]−BI·[PDZtot])·([PBMtot]−BI·[PDZtot])/BI·[PDZtot] (2) where [PDZtot] and [PBMtot] correspond to the total concentrations of the PDZ domain (usually around 4 μM) and the PBM peptide used during the assay. Since the PBMtot concentration in the resin during the holdup assay parameter may differ from one peptide to another and remains unknown, it is impossible to directly convert BI values into KD constants. We systematically determined the KD constants for a subset of PDZ/PBM pairs by competitive FP. […] For each PBM, the average peptide concentration was calculated after outlier rejection based on the absolute distances from the median as compared to three times the standard deviation (3σ rule), with never more than 2 values rejected.

The next assay deals with T2, MAGI3 PDZ 2 (Homo sapiens, UniProt Q5TCQ9).
T2 construct: made in house; host or cells: E. coli
T2 sequence (Q5TCQ9 410-492 limits assumed): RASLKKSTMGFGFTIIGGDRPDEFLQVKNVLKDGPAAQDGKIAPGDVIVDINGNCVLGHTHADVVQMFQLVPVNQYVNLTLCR
Kind of assay: Holdup assay, MAGI3-2. Format: binding. The following applies: for BI: MAGI3-2. The method, then:
as §1, §2, §3

The subject of a further assay is APBA2-2. Kind of assay: Holdup assay, APBA2-2. Format: binding, human.
A further assay deals with ARHGAP21-1. Kind of assay: Holdup assay, ARHGAP21-1. Format: binding, human.
In the next assay the test system is DLG3-1. The experiment in a line: Holdup assay, DLG3-1. It counts as binding, human.
A further assay has as its system DVL2-1. Kind of assay: Holdup assay, DVL2-1. Format: binding, human.
Another assay has as its target T3, FRMPD2-2 (Homo sapiens, UniProt Q68DX3).
T3 sequence (Q68DX3 1-1309): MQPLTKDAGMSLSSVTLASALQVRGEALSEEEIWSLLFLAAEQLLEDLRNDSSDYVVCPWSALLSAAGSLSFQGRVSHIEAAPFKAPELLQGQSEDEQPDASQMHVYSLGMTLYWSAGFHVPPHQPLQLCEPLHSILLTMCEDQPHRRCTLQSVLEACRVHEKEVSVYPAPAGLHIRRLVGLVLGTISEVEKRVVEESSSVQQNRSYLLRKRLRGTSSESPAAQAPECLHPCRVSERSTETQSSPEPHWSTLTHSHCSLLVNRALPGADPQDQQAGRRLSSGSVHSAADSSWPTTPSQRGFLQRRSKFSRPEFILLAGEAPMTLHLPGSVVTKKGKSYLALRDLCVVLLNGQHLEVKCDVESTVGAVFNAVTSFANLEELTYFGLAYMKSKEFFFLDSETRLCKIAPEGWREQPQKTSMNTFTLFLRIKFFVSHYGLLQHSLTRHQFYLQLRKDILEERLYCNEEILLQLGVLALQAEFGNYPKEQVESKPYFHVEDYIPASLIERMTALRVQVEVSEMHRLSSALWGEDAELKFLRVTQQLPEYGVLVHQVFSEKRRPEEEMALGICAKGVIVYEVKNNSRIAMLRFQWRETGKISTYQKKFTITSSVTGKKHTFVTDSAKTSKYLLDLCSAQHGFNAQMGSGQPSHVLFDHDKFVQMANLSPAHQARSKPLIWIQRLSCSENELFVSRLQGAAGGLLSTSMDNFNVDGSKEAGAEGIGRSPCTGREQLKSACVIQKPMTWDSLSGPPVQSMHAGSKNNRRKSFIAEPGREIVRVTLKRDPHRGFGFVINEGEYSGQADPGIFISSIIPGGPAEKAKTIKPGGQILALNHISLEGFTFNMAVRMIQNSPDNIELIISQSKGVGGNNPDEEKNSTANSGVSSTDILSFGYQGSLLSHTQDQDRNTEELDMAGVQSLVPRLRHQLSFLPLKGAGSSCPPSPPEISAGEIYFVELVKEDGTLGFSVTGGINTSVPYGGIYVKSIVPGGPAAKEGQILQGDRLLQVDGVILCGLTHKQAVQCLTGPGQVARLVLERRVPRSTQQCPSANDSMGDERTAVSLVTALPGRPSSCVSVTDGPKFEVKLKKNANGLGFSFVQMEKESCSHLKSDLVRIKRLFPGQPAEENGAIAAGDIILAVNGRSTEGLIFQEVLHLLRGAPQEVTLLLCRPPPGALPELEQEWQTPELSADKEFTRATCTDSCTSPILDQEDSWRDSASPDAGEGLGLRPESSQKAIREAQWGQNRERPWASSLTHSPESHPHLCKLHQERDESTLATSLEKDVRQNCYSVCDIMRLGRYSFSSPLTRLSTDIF
Kind of assay: Holdup assay, FRMPD2-2. Format: binding.

For a further assay, the system named is FRMPD4-1. The experiment in a line: Holdup assay, FRMPD4-1. Format: binding, human.
For a further assay, the system named is GRIP1-3. The experiment in a line: Holdup assay, GRIP1-3. It counts as binding, human.
For a further assay, the system named is GRIP1-7. The experiment in a line: Holdup assay, GRIP1-7. Format: binding, human.
The next assay deals with HTRA3-1. The experiment in a line: Holdup assay, HTRA3-1. It counts as binding, human.
The next assay concerns INADL-4. The experiment in a line: Holdup assay, INADL-4. Format: binding, human.
The next assay relates to LIN7C-1. Kind of assay: Holdup assay, LIN7C-1. Format: binding, human.

The structures appear in SMILES notation. *1 amine or outer side, *2 acyl side, *3 side chain or, on linkers, in order; H or OH if unused. Where a SMILES comes first, the peptide text is derived from it. The star is where a group is joined. X1 = O=C(CCCC[C@@H]1SC[C@@H]2NC(=O)N[C@@H]21)NCCCOCCOCCOCCCN*; Suc = O=C(CCC(=O)[*:2])[*:1]

T1 sequence (Q86UL8 426-510 limits assumed): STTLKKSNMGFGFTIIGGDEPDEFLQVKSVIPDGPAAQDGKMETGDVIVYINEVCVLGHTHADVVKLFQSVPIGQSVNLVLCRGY

Regarding `CC[C@H](C)[C@H](NC(=O)[C@H](CCC(N)=O)NC(=O)[C@@H](NC(=O)[C@H](Cc1c[nH]cn1)NC(=O)[C@H](CCC(N)=O)NC(=O)[C@H](CC(=O)O)NC(=O)[C@H](CCC(=O)O)NC(=O)[C@H](CC(=O)O)NC(=O)CCC(=O)NCCCOCCOCCOCCCNC(=O)CCCC[C@@H]1SC[C@@H]2NC(=O)N[C@@H]21)[C@@H](C)O)C(=O)N[C@H](C(=O)N[C@@H](CCCCN)C(=O)N[C@H](C(=O)O)C(C)C)[C@@H](C)O` [PTEN_11], the BI on MAGI2 PDZ 2 was 0.18; at MAGI3 PDZ 2, 0.094; in the assay with APBA2-2, -0.01; in the assay with ARHGAP21-1, -0.072; in the assay on DLG3-1, 0; with DVL2-1, -0.008. The BI is given as 0.291 on FRMPD2-2; -0.004 in the assay with FRMPD4-1; -0.015 with GRIP1-3; -0.03 with GRIP1-7; 0.05 in the assay on HTRA3-1; -0.049 in the assay with INADL-4. The compound further came in with a BI in the assay on LIN7C-1 of -0.041. The LogKD with APBA2-2, in the assay on ARHGAP21-1, in the assay with DLG3-1, in the assay on DVL2-1, in the assay on FRMPD4-1 and in the assay with GRIP1-3 was 3.519 throughout. Besides, the LogKD with GRIP1-7, in the assay with HTRA3-1, with INADL-4 and with LIN7C-1 was 3.519 in each case. On FRMPD2-2, binding was put at a Kd of 80 µM.

Take `CC[C@H](C)[C@H](NC(=O)[C@H](CCC(N)=O)NC(=O)[C@@H](NC(=O)[C@H](Cc1c[nH]cn1)NC(=O)[C@H](CCC(N)=O)NC(=O)[C@H](CC(=O)O)NC(=O)[C@H](CCC(=O)O)NC(=O)[C@H](CC(=O)O)NC(=O)[C@H](Cc1ccccc1)NC(=O)[C@@H]1CCCN1C(=O)CCC(=O)NCCCOCCOCCOCCCNC(=O)CCCC[C@@H]1SC[C@@H]2NC(=O)N[C@@H]21)[C@@H](C)O)C(=O)N[C@H](C(=O)N[C@@H](CCCCN)C(=O)N[C@H](C(=O)O)C(C)C)[C@@H](C)O` [PTEN_13] ({X1-Suc}-PFDEDQHTQITKV-OH): the BI was 0.082 on MAGI2 PDZ 2; 0.414 on MAGI3 PDZ 2; 0.041 in the assay on APBA2-2; 0.028 in the assay with ARHGAP21-1; -0.03 in the assay on DLG3-1; -0.026 with DVL2-1. Besides, the BI at FRMPD2-2 is 0.254; with FRMPD4-1, -0.07; in the assay on GRIP1-3, -0.002; in the assay on GRIP1-7, 0.015; in the assay on HTRA3-1, -0.059; with INADL-4, -0.084. The BI in the assay with LIN7C-1 is -0.105. The Kd was 21.7 µM on MAGI3 PDZ 2 and 46.9 µM at FRMPD2-2.

Consider `CC[C@H](C)[C@H](NC(=O)[C@H](CCC(N)=O)NC(=O)[C@@H](NC(=O)[C@H](Cc1c[nH]cn1)NC(=O)[C@H](CCC(N)=O)NC(=O)[C@H](CC(=O)O)NC(=O)[C@H](CCC(=O)O)NC(=O)[C@H](CC(=O)O)NC(=O)CCC(=O)NCCCOCCOCCOCCCNC(=O)CCCC[C@@H]1SC[C@@H]2NC(=O)N[C@@H]21)[C@@H](C)O)C(=O)N[C@H](C(=O)N[C@@H](CCCCNC(C)=O)C(=O)N[C@H](C(=O)O)C(C)C)[C@@H](C)O` [PTEN_Ac], for which the Kd on MAGI2 PDZ 2 is 55.5 µM; at MAGI3 PDZ 2, 38.8 µM; at FRMPD2-2, 19.1 µM. In addition, the BI at MAGI2 PDZ 2 is 0.325; at MAGI3 PDZ 2, 0.405; with APBA2-2, -0.03; in the assay with ARHGAP21-1 it was 0.012; in the assay on DLG3-1 it was 0.013; at FRMPD2-2, 0.574. The BI was -0.076 in the assay on FRMPD4-1; 0.02 with GRIP1-3; -0.071 with GRIP1-7; 0.011 with HTRA3-1; -0.106 in the assay on INADL-4; 0.012 in the assay with LIN7C-1. The LogKD in the assay with APBA2-2, in the assay on ARHGAP21-1, in the assay with DLG3-1, in the assay on FRMPD4-1, in the assay on GRIP1-3 and in the assay on GRIP1-7 was 3.605 each time. For the same compound, the LogKD with HTRA3-1, with INADL-4 and with LIN7C-1 was 3.605 in each case.

Turning to `CC[C@H](C)[C@H](NC(=O)[C@H](CCC(N)=O)NC(=O)[C@@H](NC(=O)[C@H](Cc1c[nH]cn1)NC(=O)[C@H](CCC(N)=O)NC(=O)[C@H](CC(=O)O)NC(=O)[C@H](CCC(=O)O)NC(=O)[C@H](CC(=O)O)NC(=O)CCC(=O)NCCCOCCOCCOCCCNC(=O)CCCC[C@@H]1SC[C@@H]2NC(=O)N[C@@H]21)[C@@H](C)O)C(=O)N[C@H](C(=O)N[C@@H](CCCNC(=N)N)C(=O)N[C@H](C(=O)O)C(C)C)[C@@H](C)O` [PTEN_KR] ({X1-Suc}-DEDQHTQITRV-OH), the values for the Kd at MAGI2 PDZ 2 and on FRMPD2-2 were 29.2 µM and 56.9 µM, respectively. The BI is given as 0.443 on MAGI2 PDZ 2; 0.445 at MAGI3 PDZ 2; -0.002 with APBA2-2; 0.074 in the assay on ARHGAP21-1; 0.066 with DLG3-1; -0.027 in the assay on DVL2-1. Besides, the BI on FRMPD2-2 was 0.295; in the assay on FRMPD4-1, -0.051; in the assay on GRIP1-3, -0.034; with GRIP1-7 it was -0.06; in the assay on HTRA3-1, 0.065; with INADL-4 it was -0.04. The compound further yielded a BI in the assay on LIN7C-1 of -0.071. The LogKD with APBA2-2, with ARHGAP21-1, in the assay with DLG3-1, in the assay with DVL2-1, in the assay on FRMPD4-1 and in the assay on GRIP1-3 was 3.655 each time. Besides, the LogKD with GRIP1-7, in the assay on HTRA3-1, in the assay with INADL-4 and in the assay with LIN7C-1 was 3.655 throughout.

The Kd is the equilibrium constant for the complex coming apart. Read a high Kd as a looser complex.
